Values of other authors, collected in patent US7205008B2, “Methods of treating Alzheimer's disease and other amyloidoses using Hypericum perforatum and derivatives thereof” (ProteoTech, Inc., priority 2000, dated 2007).

Cc1cc(O)c2c(=O)c3c(O)cc(O)c4c5c(O)cc(O)c6c(=O)c7c(O)cc(C)c8c1c2c(c34)c(c78)c65 [hypericin]
fraction of hypericin absorbed (after swallowing a pill of Hypericum perforatum, estimated): about 20%
time it lasts in the bloodstream (dose of 0.75 mg of hypericin): more than a day
